The record followed here is US10004716B2, “Therapeutic/ preventive agent containing coumarin derivative as active ingredient” (NIPPON ZOKI PHARMACEUTICAL CO., LTD., priority 2014, dated 2018).

Structures are written as SMILES.

The subject of one test is IL-1β gene expression. In words: Suppression of IL-1α-induced gene expression of inflammation-related factors in bovine cartilage pieces (real time PCR): IL-1β. Format: cell-based. The conditions noted are these: 20 μmol/L test substance 2 hours, then IL-1α 3 ng/mL 8 hours, n = 3. As to the method:
(§1) Each 6 to 8 cartilage pieces (diameter: 4 mm) of bovine metacarpophalangeal joint were placed into each well of a 24-well plate and incubated for one night in 1 mL of a basal medium in a CO2 incubator which was set at 37° C. and 5% by volume of CO2. After that, they were incubated for 2 hours in a basal medium containing 20 μmol/L of a test substance and, after addition of human recombinant IL-1α (3 ng/mL) thereto, they were incubated for 8 hours more. After completion of the incubation, the culture medium was discarded, an RNA stabilizer was added to the cartilage pieces, the mixture was incubated at 4° C. for one night and the cartilage pieces were finely cut using scissors, placed into micro-tubes and stored with freezing until the extraction of RNA therefrom.
(§2) The cartilage pieces placed in the micro-tubes were pulverized using Tissue Lyser (QIAGEN) (at 25 Hz for 5 minutes; for two times), 1 mL of QIAzol Lysis Reagent (QIAGEN) was added thereto to suspend, 200 μL of chloroform was added thereto followed by mixing and the mixture was centrifuged (1500 rpm at 4° C.) to recover the supernatant liquid. Total RNA was extracted and purified using QIACube (QIAGEN) and RNeasy Micro Kit (QIAGEN). cDNA was prepared from the total RNA using Omniscript RT Kit (QIAGEN) and Oligo(dT)12-18 Primer (Invitrogen).
(§3) The cDNA synthesized from the total RNA extracted in the above (2) was used to measure the gene expression level of the inflammation-related factors [IL-1β, IL-6, COX-2 and iNOS (inducible nitric oxide synthase)] by a conventional real time PCR method using a fluorescent dye SYBR GREEN I (Roche Diagnostics) by a Light Cycler LC 480 (the same). A calibration curve was prepared by dilution of a PCR product quantified by a DNA quantitation kit (PicoGreen dsDNA Quantitiation Kit (Molecular Probes)) to an extent of 10^2˜10^7 copies/μL. From each of the resulting measured data, copy numbers per 10000 copies of glyceroaldehyde-3-phosphate dehydrogenase (GAPDH) which was an internal standard were calculated.

The next test deals with COX-2 gene expression. Kind of test: Suppression of IL-1α-induced gene expression of inflammation-related factors in bovine cartilage pieces (real time PCR): COX-2. Format: cell-based. The conditions noted are these: 20 μmol/L test substance 2 hours, then IL-1α 3 ng/mL 8 hours, n = 3. As to the method:
as §1, §2, §3

Another test relates to IL-6 gene expression. In words: Suppression of LPS-induced gene expression of inflammation-related factors in THP-1 cells (real time PCR): IL-6. Format: cell-based, human. The conditions noted are these: PMA-differentiated THP-1 cells; test substance 12.5 μmol/mL 2 hours, then LPS 10 mg/mL 3 hours; n = 3. As to the method:
(§4) THP-1 cells were subjected to induction of differentiation for 72 hours with PMA (phorbol 12-myristate 13-acetate; 100 nM/L) and then the THP-1 cells (5×10^5 cells/mL) were incubated for 24 hours in a RPMI 1640+10% FCS culture solution in a 24-well plate. After that, a test substance was added so as to make the final concentration 12.5 μmol/mL followed by conducting the preincubation for 2 hours, a lipopolysaccharide (LPS) was then added thereto so as to make the final concentration 10 mg/mL and, after 3 hours, the cells were recovered.
(§5) QIAzol Lysis Reagent (QIAGEN) (1 mL) was added to the above to suspend, 200 μL of chloroform was added thereto followed by mixing and centrifugation (at 4° C. and 1500 rpm) was conducted whereby the supernatant liquid was recovered. Total RNA was extracted and purified by treating the supernatant liquid with QIACube (QIAGEN) and RNeasy Micro Kit (QIAGEN). cDNA was prepared from the total RNA using Omniscript RT kit (QIAGEN) and Oligo(dT)12-18 Primer (Invitrogen).
(§6) Gene expression level of the inflammation-related factors [IL-1β, IL-6 and monocyte chemotactic protein (MCP)-1] was measured by a conventional real time PCR method using a fluorescent dye SYBR GREEN I (Roche Diagnostics) by Light Cycler LC 480 (the same) using cDNA synthesized from the total RNA extracted in the above (2). A calibration curve was prepared by diluting the PCR product quantified by PicoGreen dsDNA Quantitation kit (Molecular probes) (a DNA quantitation kit) to an extent of 10^2˜10^7 copies/μL. From each of the resulting quantified values, copy numbers per 10000 copies of GAPDH gene being an internal standard were calculated.

Test [1] deals with monocyte chemotactic protein (MCP)-1 gene expression. In words: Suppression of LPS-induced gene expression of inflammation-related factors in THP-1 cells (real time PCR): MCP-1. The note with it: PMA-differentiated THP-1 cells; test substance 12.5 μmol/mL 2 hours, then LPS 10 mg/mL 3 hours; n = 3. Format: cell-based, human. As to the method:
as §4, §5, §6

In test [2] the test system is connective tissue growth factor (CTGF) gene expression. Kind of test: Evaluation I: TGF-β-induced gene expression of fibrosis-related factors in NHLF cells: CTGF. Format: cell-based, human. The note with it: 25 μmol/L test substance 2 hours, then TGF-β 5 ng/mL 24 hours, n = 3. As to the method:
(§7) NHLF cells were sown so as to make their amount 4×10^4 cells/well to each well of a 12-well plate and incubated to an extent of 80% confluent in a medium where fibroblast growth medium 2 supplement mix (FGM-2 SingleQuots, Lonza) was added to a fibroblast basal medium (FBM, Lonza). After that, incubation was conducted for 2 hours in a Dulbecco modified Eagle medium (DMEM) containing 25 μmol/L of a test substance and, after addition of […] growth factor (TGF)-β thereto so as to make its final concentration 5 ng/mL, incubation was carried out for 24 hours more.
(§8) QIAzol Lysis Reagent (QIAGEN) (1 mL) was added to the above to suspend, 200 μL of chloroform was added thereto followed by mixing and centrifugation (at 4° C. and 1500 rpm) was then conducted whereby the supernatant liquid was recovered. Total RNA was extracted and purified by treating the supernatant liquid with QIACube (QIAGEN) and RNeasy Micro Kit (QIAGEN). cDNA was prepared from the total RNA using Omniscript RT kit (QIAGEN) and Oligo(dT)12-18 Primer (Invitrogen).
as §6, with “fibrosis-related” for “inflammation-related”, “[connective tissue growth factor (CTGF), α-smooth muscle actin (SMA), fibronectin, endothelin” for “[IL-1β, IL-6”, “type I collagen (Col 1)]” for “monocyte chemotactic protein (MCP)-1]”

In test [3] the test system is α-smooth muscle actin (SMA) gene expression. In words: Evaluation I: TGF-β-induced gene expression of fibrosis-related factors in NHLF cells: α-SMA. Format: cell-based, human. The conditions noted are these: 25 μmol/L test substance 2 hours, then TGF-β 5 ng/mL 24 hours, n = 3. Here is the method: as §7, §8
as §6, with “fibrosis-related” for “inflammation-related”, “[connective tissue growth factor (CTGF), α-smooth muscle actin (SMA), fibronectin, endothelin” for “[IL-1β, IL-6”, “type I collagen (Col 1)]” for “monocyte chemotactic protein (MCP)-1]”

In test [4] the test system is fibronectin gene expression. In words: Evaluation I: TGF-β-induced gene expression of fibrosis-related factors in NHLF cells: fibronectin. Format: cell-based, human. The conditions noted are these: 25 μmol/L test substance 2 hours, then TGF-β 5 ng/mL 24 hours, n = 3. As to the method:
as §7, §8
as §6, with “fibrosis-related” for “inflammation-related”, “[connective tissue growth factor (CTGF), α-smooth muscle actin (SMA), fibronectin, endothelin” for “[IL-1β, IL-6”, “type I collagen (Col 1)]” for “monocyte chemotactic protein (MCP)-1]”

Consider `O=c1oc2c(OS(=O)(=O)c3cccc(C(F)(F)F)c3)cccc2cc1NS(=O)(=O)c1ccc(C(F)(F)F)cc1` [Compound 68, 2-Oxo-3-[[4-(trifluoromethyl)phenyl]sulfonylamino]-chromen-8-yl 3-(trifluoromethyl)benzenesulfonate], for which the “Copy Numbers per 10000 Copies of GAPDH IL-1β” value in the test on IL-1β gene expression was 175.1 copies per 10000 copies of GAP. Further, the “Copy Numbers per 10000 Copies of GAPDH COX-2” value in the test on COX-2 gene expression is recorded as 1655.9 copies per 10000 copies of GAP. Also, in the test with IL-6 gene expression, the “Copy Numbers per 10000 Copies of GAPDH IL-6” value is 95.7 copies per 10000 copies of GAP. Besides, in test [1], the “Copy Numbers per 10000 Copies of GAPDH MCP-1” value is reported as 823.5 copies per 10000 copies of GAP. Moreover, in test [2], the “Copy Numbers per 10000 Copies of GAPDH CTGF” value is listed as 10441.5 copies per 10000 copies of GAP. Further, the “Copy Numbers per 10000 Copies of GAPDH α-SMA” value in test [3] was 1007.1 copies per 10000 copies of GAP. The “Copy Numbers per 10000 Copies of GAPDH Fibronectin” value in test [4] is on record as 26090.7 copies per 10000 copies of GAP.
As for `O=c1oc2c(OS(=O)(=O)c3ccc(C(F)(F)F)cc3)cccc2cc1NS(=O)(=O)c1cccc(Br)c1` [Compound 58, 3-[(3-Bromophenyl)sulfonylamino]-2-oxochromen-8-yl 4-(trifluoromethyl)benzenesulfonate], in the test on IL-1β gene expression, the “Copy Numbers per 10000 Copies of GAPDH IL-1β” value is 157.8 copies per 10000 copies of GAP. Besides, the “Copy Numbers per 10000 Copies of GAPDH COX-2” value in the test on COX-2 gene expression is 982.3 copies per 10000 copies of GAP. Also, the “Copy Numbers per 10000 Copies of GAPDH IL-6” value in the test on IL-6 gene expression is given as 93.2 copies per 10000 copies of GAP. For the same compound, the “Copy Numbers per 10000 Copies of GAPDH MCP-1” value in test [1] is on record as 1040.9 copies per 10000 copies of GAP. Besides, the “Copy Numbers per 10000 Copies of GAPDH CTGF” value in test [2] is given as 5020.5 copies per 10000 copies of GAP. Besides, in test [3], the “Copy Numbers per 10000 Copies of GAPDH α-SMA” value is listed as 826.9 copies per 10000 copies of GAP. Moreover, the “Copy Numbers per 10000 Copies of GAPDH Fibronectin” value in test [4] is reported as 18665.2 copies per 10000 copies of GAP.
In the case of `O=c1oc2c(OS(=O)(=O)c3ccc(C(F)(F)F)cc3)cccc2cc1NS(=O)(=O)c1cccc(C(F)(F)F)c1` [Compound 57, 2-Oxo-3-[[3-(trifluoromethyl)phenyl]sulfonylamino]-chromen-8-yl 4-(trifluoromethyl)benzenesulfonate], in the test with IL-1β gene expression, the “Copy Numbers per 10000 Copies of GAPDH IL-1β” value is 144.8 copies per 10000 copies of GAP. Also, in the test with COX-2 gene expression, the “Copy Numbers per 10000 Copies of GAPDH COX-2” value was 1420.8 copies per 10000 copies of GAP. Moreover, in the test with IL-6 gene expression, the “Copy Numbers per 10000 Copies of GAPDH IL-6” value is reported as 49.0 copies per 10000 copies of GAP. Moreover, the “Copy Numbers per 10000 Copies of GAPDH MCP-1” value in test [1] is 1001.3 copies per 10000 copies of GAP. Also, the “Copy Numbers per 10000 Copies of GAPDH CTGF” value in test [2] was 8963.4 copies per 10000 copies of GAP. Further, the “Copy Numbers per 10000 Copies of GAPDH α-SMA” value in test [3] was 1166.3 copies per 10000 copies of GAP. Moreover, the “Copy Numbers per 10000 Copies of GAPDH Fibronectin” value in test [4] is given as 21220.7 copies per 10000 copies of GAP.
`O=c1oc2c(OS(=O)(=O)c3cccc(Br)c3)cccc2cc1NS(=O)(=O)c1cccc(C(F)(F)F)c1` [Compound 60, 2-Oxo-3-[[3-(trifluoromethyl)phenyl]sulfonylamino]-chromen-8-yl 3-bromobenzenesulfonate]: the “Copy Numbers per 10000 Copies of GAPDH IL-1β” value in the test on IL-1β gene expression was 170.6 copies per 10000 copies of GAP. In addition, the “Copy Numbers per 10000 Copies of GAPDH COX-2” value in the test on COX-2 gene expression is listed as 920.6 copies per 10000 copies of GAP. Further, the “Copy Numbers per 10000 Copies of GAPDH IL-6” value with IL-6 gene expression is reported as 275.2 copies per 10000 copies of GAP. Also, the “Copy Numbers per 10000 Copies of GAPDH MCP-1” value in test [1] is reported as 1787.5 copies per 10000 copies of GAP. The “Copy Numbers per 10000 Copies of GAPDH CTGF” value in test [2] was 13992.0 copies per 10000 copies of GAP. Further, the “Copy Numbers per 10000 Copies of GAPDH α-SMA” value in test [3] is 1324.8 copies per 10000 copies of GAP. Further, the “Copy Numbers per 10000 Copies of GAPDH Fibronectin” value in test [4] is recorded as 30000.8 copies per 10000 copies of GAP.
